Measured values: US20210275514A1, “COMPOUNDS FOR USE IN TREATING KIDNEY DISORDERS” (Hoffmann-La Roche Inc., priority 2018, published 2021)

How the values were obtained:
[1] = test system: 129 Col4a3 KO mice; assay: Alport mouse model, late study of survival, treatment from 6 weeks of age; type: in vivo; details: 100 mg/Kg/day oral gavage started in 6 weeks old mice
Procedure: 129 Col4a3^tm1/Dec/J mice were purchased from Jackson Labs and bred to generate Col4a3 KO mice. Mice were genotyped and selected using the primers: F ([…]), R ([…]) and Rm ([…]) in a PCR reaction (94 C for 5 min, followed by 30 cycles of 30 sec at 95 C, 15 sec at 60 C and 30 sec 72 C, and 1 min at 72 C). 129 Col4A3-KO mice were divided into two groups of 5 mice (males and females) each. At the age of 4 weeks, mice started receiving either vehicle or Cpd G (100 mg/Kg) by oral gavage once daily for 4 weeks. Body weight measurements and spot urine collection was performed once a week. Animals were sacrificed at the end of the treatment at the age of 8 weeks. A late study was also performed to evaluate if treatment of Col4A3-KO mice at time of established disease would prolong mice survival. In this study, mice were treated with Cpd G (100 mg/Kg/day) by daily oral gavage starting at 6 weeks of age and survival was assessed.

[2] = test system: db/db mice; assay: DKD mouse model; type: in vivo; details: 30 mg/Kg once daily; for albuminuria (albumin to creatinine ratio): vs db/db vehicle
Procedure: B6.BKS^db/db and B6.BKS^db/+ mice were purchased from the Jackson laboratory. At the age of 14 weeks, mice started receiving vehicle or the ABCA1 inducer Cpd A (30 mg/Kg) by oral gavage once daily for 4 weeks. Body weight measurements and urine collection was performed every week. Mice were sacrificed at 18 weeks old, blood was collected and tissues were processed and analyzed as described below.
Spot urine samples were collected for all mice at baseline and time of sacrifice. Urinary albumin and creatinine were determined using an albumin ELISA kit (Bethyl laboratories) and a colorimetric assay for creatinine determination (Stanbio). Albuminuria was calculated and expressed as μg of albumin divided by mg of creatinine. For diabetic mouse model, weight and glycaemia were measured on a bi-weekly basis.
Kidney cortex sections were embedded in OCT for further analysis of immunofluorescent staining and lipid droplet. Specifically, for determination of podocyte number per glomerular cross-section was determined using 4 μm-thick tissue sections that were cut and stained with WT1 antibody (1:200, Santa Cruz) and prolong GOLD DAPI mounting media. Images were acquired with confocal microscopy using a Leica SP5 inverted microscope with the 40× wet objective. 20 glomeruli per mouse were quantified.
Electron microscopy. For transmission electron microscopy kidney cortex sections were placed in 4% paraformaldehyde, 1% gluteraldehyde in 0.1 M phosphate buffer (pH 7.4). Foot processes were quantified per 1 μm of the glomerular basement membrane.
Renal lipids species assays. Kidney cortex sections were snap frozen and utilized for lipid extraction and cholesterol content determination. The tissue was homogenized in 2 mM potassium phosphate buffer in a glass douncer on ice. Lipids in 100 μl homogenate (˜5-10 mg tissue) were extracted with 1 ml hexane:isopropanol (3:2) for two sequential 30-minute extractions. The solvent containing lipids was then dried in Nitrogen atmosphere. Lipids were then reconstituted using isopropanol: NP-40 (9:1) and cholesterol content was quantified using the Amplex red cholesterol assay kit (Invitrogen) according to the manufacturers protocol. Triglycerides in lipid extracts were assayed with a colorimetric kit according to manufacturer's instructions (Cayman). Total cholesterol and cholesterol esters were assayed using an enzymatic fluorometric method. For total cholesterol renal lipid extracts were diluted in assay buffer (100 mM potassium phosphate, 50 mM NaCl, 5 mM cholic acid, 0.1% […], pH 7.4) and incubated with same buffer supplemented with a final concentration of 1 U/ml cholesterol oxidase, 1 U/ml cholesterol esterase, 1 U/ml horseradish peroxidase, and 75 μM Amplex Red. The reactions were incubated at 37° C. for 30 min in a black opaque 96 well plate (Greiner) and fluorescence was measured in a microplate reader (Spectramax i3X, Molecular Devices) using 530 nm excitation and 580 emission.
Cholesterol esters were assayed using a direct method described by Mizoguchi et al (Mizoguchi, 2004). Briefly 150 μl of FC decomposition reagent (45 U/ml bovine catalase and 1 U/ml cholesterol oxidase, in assay buffer described above) was added to 25 μl of sample containing up to 1 mM total cholesterol. Free cholesterol was allowed to decompose overnight at 37° C. and then 75 μl of 4× cholesterol ester detection reagent (1 U/ml cholesterol oxidase, 4 U/ml cholesterol esterase, 24 U/ml horseradish peroxidase, 300 μM Amplex Red) was added. Reaction was incubated at 37° C. for 30 min and fluorescence was measured as described above for total cholesterol. 1 mM of cholesterol and 5 μM of cholesterol oleate standards were included as internal controls to validate assay sensibility and specificity.
Pathological evaluation. Kidney cortex sections were paraffin-embedded and cut at 4 μm thick for periodic acid-Schiff (PAS) and HE. […]

SMILES | increased life span [1] | Blood urea nitrogen (BUN) ([2]; 4 weeks) | cholesterol esters in kidney cortex ([2]; 4 weeks) | mesangial expansion (PAS stained sections) ([2]; 4 weeks) | podocyte foot process effacement (TEM) ([2]; 4 weeks) | podocyte number (WT1 positive cells) ([2]; 4 weeks) | albuminuria (albumin to creatinine ratio) ([2]; after four weeks of treatment (18 weeks)) | albuminuria (albumin to creatinine ratio) ([2]; after two weeks of treatment (16 weeks))
O=C(N[C@@H]1CCCC[C@H]1O)c1cnc(OCC(F)(F)F)c(-c2ccc(Cl)c(Cl)c2)c1 [Cpd G, 5-(3,4-dichloro-phenyl)-N-((1R,2R)-2-hydroxy-cyclohexyl)-6-(2,2,2-trifluoro-ethoxy)-nicotinamide] | ~15% | – | – | – | – | – | – | –
O=C(N[C@@H]1CCCC[C@H]1O)c1ccc(OCC(F)(F)F)c(-c2ccc(Cl)c(Cl)c2)n1 [Cpd A, 6-(3,4-Dichlorophenyl)-N-[(1R,2R)-2-hydroxycyclohexyl]-5-(2,2,2-trifluoroethoxy)pyridine-2-carboxamide] | – | significantly improved | significant reduction | improved | improved | improved | even further reduction | reduction in albuminuria
